Reference: patent publication US8658801B2, “Pesticides containing a bicyclic bisamide structure” (Syngenta Crop Protection, LLC, priority 2006, dated 2014)

Legend:
[1] = tested on: Spodoptera littoralis (Egyptian Cotton Leafworm); test: Example B1: activity against Spodoptera littoralis, larvicide, feeding/residual contact, preventive (cotton leaf discs); type: in vivo; conditions: foliar, 72 h, 3 days after treatment, L1 larvae
Description: Activity Against Spodoptera littoralis (Egyptian Cotton Leafworm)
(§1) (Larvicide, Feeding/Residual Contact Activity, Preventive)
The samples are checked for mortality, repellent effect, feeding behaviour, and growth regulation 3 days after treatment. In this test, compounds listed in Table P above show good activity. In particular compounds P.1, P.2, P.3, P.4, P.5, P.6, P.7, P.9, P.10, P.11, P.12, P.13, P.15, P.16, P.17, P.18, P.19, P.20, P.21, P.22, P.23, P.24, P.25, P.26, P.27, P.28, P.29, P.30, P.31, P.32, P.33, P.34, P.35, P.36, P.37, P.38, P.39, P.40, P.41, P.42, P.43, P.44, P.45, P.46, P.47, P.48, P.49, P.50, P.51, P.52, P.53, P.54, P.55, P.56, P.57, P.58, P.59, P.60, P.61, P.63, P.64, P.67, P.68 and P.70 show an activity of over 80% at a concentration of 400 ppm.

[2] = tested on: Heliothis virescens (Tobacco Budworm); test: Example B2: activity against Heliothis virescens, ovo-larvicide, feeding/contact, curative; type: in vivo; conditions: 96 h, 4 days incubation, eggs 0-24 h old
Protocol: Activity Against Heliothis virescens (Tobacco Budworm)
(Ovo-Larvicide, Feeding/Contact Activity, Curative)
Eggs (0-24 h old) are placed in 24-well microtiter plate on artificial diet and treated with test solutions by pipetting. After an incubation period of 4 days, samples are checked for egg mortality, larval mortality, and growth regulation.

[3] = tested on: Plutella xylostella (Diamond Back Moth); test: Example B3: Plutella xylostella, larvicide, feeding/residual contact, preventive (artificial diet MTP); type: in vivo; conditions: 120 h, 5 days incubation, L2 larvae
Protocol: Plutella xylostella (Diamond Back Moth)
as §1
24-well microtiter plate (MTP) with artificial diet is treated with test solutions by pipetting. After drying, the MTP's are infested with larvae (L2)(10-15 per well). After an incubation period of 5 days, samples are checked for larval mortality, antifeedant and growth regulation. In this test, compounds listed in Table P above show good activity. In particular compounds P.1, P.2, P.3, P.4, P.5, P.6, P.7, P.9, P.10, P.11, P.12, P.13, P.15, P.16, P.17, P.18, P.19, P.20, P.21, P.22, P.23, P.25, P.26, P.27, P.28, P.29, P.30, P.31, P.32, P.33, P.34, P.35, P.36, P.37, P.38, P.39, P.40, P.41, P.42, P.43, P.44, P.46, P.47, P.48, P.49, P.50, P.51, P.52, P.53, P.54, P.55, P.56, P.57, P.58, P.59, P.60, P.61, P.63, P.64, P.67, P.68, P.69 P.70, P.72, P.74, P.77, P78 and P.79 show an activity of over 80% at a concentration of 400 ppm.

[4] = tested on: Diabrotica balteata (Corn Root Worm); test: Example B4: Diabrotica balteata, larvicide, feeding/residual contact, preventive; type: in vivo; conditions: 120 h, 5 days incubation, L2 larvae
Protocol: Diabrotica balteata (Corn Root Worm)
as §1
After drying, the MTP's are infested with larvae (L2)(6-10 per well). After an incubation period of 5 days, samples are checked for larval mortality, antifeedant and growth regulation. In this test, compounds listed in Table P above show good activity. In particular compounds P.1, P.2, P.5, P.6, P.10, P.11, P.12, P.13, P.15, P.16, P.17, P.18, P.19, P.24, P.25, P.27, P.28, P.29, P.30, P.31, P.33, P.34, P.35, P.37, P.38, P.39, P.42, P.43, P.44, P.45, P.46, P.47, P.48, P.49, P.50, P.52, P.53, P.65, P.67, P.68, P.69, P.70, P.71, P.72, P.75, P.78, and P.79 show an activity of over 80% at a concentration of 400 ppm.

[5] = tested on: Frankliniella occidentalis (Western Flower Thrips); test: Example B9: activity against Frankliniella occidentalis (bean leaf discs or bean plants); type: in vivo; conditions: foliar, 6 days (leaf discs) or 14 days (plants) after infestation
Protocol: Activity Against Frankliniella occidentalis (Western Flower Thrips)
Bean leaf discs on agar in petri dishes or bean plants in a spray chamber are treated with diluted test solutions. After drying leaf discs are cut and placed in plastic cups on the surface of an agar layer and infested with mixed population. 6 days (leaf discs) or 14 days (plants) after the infestation, samples are checked for reduction of treated population and compared to the non treated population.

[6] = tested on: Myzus persicae (Green Peach Aphid); test: Example B6: activity against Myzus persicae, mixed population, systemic/feeding, curative (pea seedling roots); conditions: 144 h, read-out: activity
[7] = tested on: Myzus persicae (Green Peach Aphid); test: Example B5: activity against Myzus persicae, mixed population, feeding/residual contact, preventive (sunflower leaf discs); conditions: foliar, 144 h, read-out: activity
[8] = tested on: Thrips tabaci (Onion Thrips); test: Example B7: activity against Thrips tabaci, mixed population, feeding/residual contact, preventive; conditions: 144 h, read-out: activity
[9] = tested on: Aphis craccivora (Pea Aphid); test: Example B11: activity against Aphis craccivora, mixed population, systemic/feeding; type: in vivo; conditions: 144 h, 6 days, roots in test solution (systemic)
Description: Activity Against Aphis craccivora (Pea Aphid)
(Mixed Population, Systemic/Feeding)
6 days later, samples are checked for mortality.

Measured: pest or weed control at 400 ppm

CC(C)(CS(C)(=O)=O)NC(=O)c1c(NC(=O)c2cc(C(F)(F)F)nn2-c2ncccc2Cl)c(Cl)cc2cn[nH]c12 [P.15]
not listed: [8] | [9]
> 80%: all other assays above

COc1cc(C(=O)Nc2c(Cl)cc3cn[nH]c3c2C(=O)NC2(C)CSC2)n(-c2ncccc2Cl)n1 [P.59, 5-chloro-6-{[2-(3-chloro-pyridin-2-yl)-5-methoxy-2H-pyrazole-3-carbonyl]-amino}-1H-indazole-7-carboxylic acid (3-methyl-thietan-3-yl)-amide]
not listed: [4] | [5] | [9]
> 80%: all other assays above

CCNC(=O)c1c(NC(=O)c2cc(OC)nn2-c2ncccc2Cl)c(Cl)cc2cn[nH]c12 [P.58]
not listed: [4] | [5] | [9]
> 80%: all other assays above

Cc1cc2cn[nH]c2c(C(=O)NC2(C3CC3)CC2)c1NC(=O)c1cc(OCC(F)(F)F)nn1-c1ncccc1Cl [P.70, 6-{[2-(3-chloro-pyridin-2-yl)-5-(2,2,2-trifluoro-ethoxy)-2H-pyrazole-3-carbonyl]-amino}-5-methyl-1H-indazole-7-carboxylic acid bicyclopropyl-1-ylamide]
not listed: [9]
> 80%: all other assays above

COc1cc(C(=O)Nc2c(Br)cc3cn[nH]c3c2C(=O)NC(C)(C)CSC)n(-c2ncccc2Cl)n1 [P.51]
not listed: [4] | [5] | [9]
> 80%: all other assays above

COc1cc(C(=O)Nc2c(Cl)cc3cn[nH]c3c2C(=O)NC(C)(C)CSC)n(-c2ncccc2Cl)n1 [P.57]
not listed: [4] | [5] | [9]
> 80%: all other assays above

CNC(=O)c1c(NC(=O)c2cc(C(F)(F)F)nn2-c2ncccc2Cl)c(C)cc2nc(C)ccc12 [P.22]
> 80%: [1] | [2] | [3] | [5]

COc1cc(C(=O)Nc2c(C#N)cc3cn[nH]c3c2C(=O)NC2(C3CC3)CC2)n(-c2ncccc2Cl)n1 [P.53]
not listed: [5] | [9]
> 80%: all other assays above

CC(C)NC(=O)c1c(NC(=O)c2cc(C(F)(F)F)nn2-c2ncccc2Cl)c(C#N)cc2cn[nH]c12 [P.25]
not listed: [5] | [6] | [9]
> 80%: all other assays above

COc1cc(C(=O)Nc2c(Br)cc3cn[nH]c3c2C(=O)NC(C)(C)CS(C)(=O)=O)n(-c2ncccc2Cl)n1 [P.54]
not listed: [4]
> 80%: all other assays above

CNC(=O)c1c(NC(=O)c2cc(C(F)(F)F)nn2-c2ncccc2Cl)c(Br)cc2cn[nH]c12 [P.17]
not listed: [8] | [9]
> 80%: all other assays above

COc1cc(C(=O)Nc2c(C#N)cc3cn[nH]c3c2C(=O)NC(C)C)n(-c2ncccc2Cl)n1 [P.55]
not listed: [4] | [5] | [9]
> 80%: all other assays above

CCNC(=O)c1c(NC(=O)c2cc(OC)nn2-c2ncccc2Cl)c(Br)cc2cn[nH]c12 [P.50]
not listed: [5] | [9]
> 80%: all other assays above

Cc1cc2cn[nH]c2c(C(=O)NC2(C3CC3)CC2)c1NC(=O)c1cc(Br)nn1-c1ncccc1Cl [P.71, 6-{[5-bromo-2-(3-chloro-pyridin-2-yl)-2H-pyrazole-3-carbonyl]-amino}-5-methyl-1H-indazole-7-carboxylic acid bicyclopropyl-1-ylamide]
> 80%: [2] | [4] | [8] | [6]

O=C(NC1(C2CC2)CC1)c1c(NC(=O)c2cc(OCC(F)(F)F)nn2-c2ncccc2Cl)c(Cl)cc2cn[nH]c12 [P.48]
not listed: [9]
> 80%: all other assays above

Cc1cc2cn[nH]c2c(C(=O)NC(C)C)c1NC(=O)c1cc(Br)nn1-c1ncccc1Cl [P.65, 6-{[5-bromo-2-(3-chloro-pyridin-2-yl)-2H-pyrazole-3-carbonyl]-amino}-5-methyl-1H-indazole-7-carboxylic acid isopropylamide]
> 80%: [4] | [8] | [6]

COc1cc(C(=O)Nc2c(Br)cc3cn[nH]c3c2C(=O)NCC2CC2)n(-c2ncccc2Cl)n1 [P.36]
> 80%: [1] | [2] | [3] | [6] | [7]
